Tested on: 186277-243-T-J2-PDC spheroids with HUVEC/MSC, viability
Test: Anticancer human tumor 186277-243-T-J2-PDC patient-derived colon adenocarcinoma cell line growth inhibition [CLK]
Settings: for IC50: curve of first compound; for viability, T/C: stronger effect = lower value
Procedure, shortened: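 Multi-cell-type spheroids combined patient-derived tumor cells with HUVEC endothelial cells and human mesenchymal stem cells. Paired agents were dosed in half-log steps down from about clinical Cmax, or from 10 microM where Cmax was unknown.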

[1] = second compound 0.0316 µM, first compound 0.0316 µM
[2] = second compound 0.0316 µM, first compound 0.1 µM
[3] = second compound 0.0316 µM, first compound 0.316 µM
[4] = second compound 0.0316 µM, first compound 1 µM
[5] = second compound 0.0316 µM, first compound 3.16 µM
[6] = second compound 0.0316 µM, first compound 10 µM
[7] = second compound 0.1 µM, first compound 0.0316 µM
[8] = second compound 0.1 µM, first compound 0.1 µM
[9] = second compound 0.1 µM, first compound 0.316 µM
[10] = second compound 0.1 µM, first compound 1 µM
[11] = second compound 0.1 µM, first compound 3.16 µM
[12] = second compound 0.1 µM, first compound 10 µM
[13] = second compound 0.316 µM, first compound 0.0316 µM
[14] = second compound 0.316 µM, first compound 0.1 µM
[15] = second compound 0.316 µM, first compound 0.316 µM
[16] = second compound 0.316 µM, first compound 1 µM
[17] = second compound 0.316 µM, first compound 3.16 µM
[18] = second compound 0.316 µM, first compound 10 µM
[19] = second compound 1 µM, first compound 0.0316 µM
[20] = second compound 1 µM, first compound 0.1 µM
[21] = second compound 1 µM, first compound 0.316 µM
[22] = second compound 1 µM, first compound 1 µM
[23] = second compound 1 µM, first compound 3.16 µM
[24] = second compound 1 µM, first compound 10 µM
[25] = second compound 3.16 µM, first compound 0.0316 µM
[26] = second compound 3.16 µM, first compound 0.1 µM
[27] = second compound 3.16 µM, first compound 0.316 µM
[28] = second compound 3.16 µM, first compound 1 µM
[29] = second compound 3.16 µM, first compound 3.16 µM
[30] = second compound 3.16 µM, first compound 10 µM
[31] = second compound 10 µM, first compound 0.0316 µM
[32] = second compound 10 µM, first compound 0.1 µM
[33] = second compound 10 µM, first compound 0.316 µM
[34] = second compound 10 µM, first compound 1 µM
[35] = second compound 10 µM, first compound 3.16 µM
[36] = second compound 10 µM, first compound 10 µM
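Note: compound exposure lasted seven days before readout.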
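Throughout, for viability, T/C: 100% = DMSO vehicle control wells.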

COc1cccc2c1C(=O)c1c(O)c3c(c(O)c1C2=O)CC(O)(C(=O)CO)CC3OC1CC(N)C(O)C(C)O1 (stereo unspecified) + CNC(=O)c1ccc(Nc2nc(OC3CCCC3)c3c(-c4ccc5nc(C)oc5c4)c[nH]c3n2)c(OC)c1
IC50 (second compound 0.0316 µM): 161 nM
IC50 (second compound 0.1 µM): 138 nM
IC50 (second compound 0.316 µM): 66 nM
IC50 (second compound 1 µM): < 31.6 nM
IC50 (second compound 3.16 µM): < 31.6 nM
IC50 (second compound 10 µM): < 31.6 nM
viability, T/C [1]: 112%
viability, T/C [2]: 73.5%
viability, T/C [3]: 17.3%
viability, T/C [4]: 0.3%
viability, T/C [5]: 3.88%
viability, T/C [6]: 1.97%
viability, T/C [7]: 72.2%
viability, T/C [8]: 64.4%
viability, T/C [9]: 13%
viability, T/C [10]: 0.2%
viability, T/C [11]: 1.92%
viability, T/C [12]: 4.82%
viability, T/C [13]: 52.4%
viability, T/C [14]: 48.7%
viability, T/C [15]: 10.6%
viability, T/C [16]: 1.25%
viability, T/C [17]: 2.88%
viability, T/C [18]: 1.07%
viability, T/C [19]: 40.7%
viability, T/C [20]: 27.5%
viability, T/C [21]: 3.75%
viability, T/C [22]: 2.42%
viability, T/C [23]: 6.62%
viability, T/C [24]: 3.37%
viability, T/C [25]: 34.2%
viability, T/C [26]: 19.9%
viability, T/C [27]: 3.14%
viability, T/C [28]: 2.25%
viability, T/C [29]: 1.39%
viability, T/C [30]: 1.97%
viability, T/C [31]: 34.8%
viability, T/C [32]: 16.9%
viability, T/C [33]: 4.4%
viability, T/C [34]: 2.28%
viability, T/C [35]: 3.08%
viability, T/C [36]: 3.22%

COc1c(OCCCN2CCOCC2)ccc2c3n(c(=NC(=O)c4cnc(N)nc4)nc12)CCN3 + CN1CCN(c2cc(C(=O)Nc3cc4cc(-c5cnn(C)c5)ccc4cn3)ccn2)CC1
IC50 (second compound 0.0316 µM): 27 nM
IC50 (second compound 0.1 µM): 7.37 nM
IC50 (second compound 0.316 µM): < 3.16 nM
IC50 (second compound 1 µM): < 3.16 nM
IC50 (second compound 3.16 µM): < 3.16 nM
IC50 (second compound 10 µM): < 3.16 nM
viability, T/C (second compound 0.0316 µM, first compound 0.00316 µM): 93.9%
viability, T/C (second compound 0.0316 µM, first compound 0.01 µM): 69%
viability, T/C [1]: 50%
viability, T/C [2]: 25.4%
viability, T/C [3]: 14.8%
viability, T/C [4]: 12.5%
viability, T/C (second compound 0.1 µM, first compound 0.00316 µM): 68.3%
viability, T/C (second compound 0.1 µM, first compound 0.01 µM): 43%
viability, T/C [7]: 21.3%
viability, T/C [8]: 7.94%
viability, T/C [9]: 6.07%
viability, T/C [10]: 5.15%
viability, T/C (second compound 0.316 µM, first compound 0.00316 µM): 20%
viability, T/C (second compound 0.316 µM, first compound 0.01 µM): 11.7%
viability, T/C [13]: 3.4%
viability, T/C [14]: 1.12%
viability, T/C [15]: 1.11%
viability, T/C [16]: 0.75%
viability, T/C (second compound 1 µM, first compound 0.00316 µM): 2.09%
viability, T/C (second compound 1 µM, first compound 0.01 µM): 0.39%
viability, T/C [19]: 0.99%
viability, T/C [20]: 0.18%
viability, T/C [21]: 0.78%
viability, T/C [22]: 0.88%
viability, T/C (second compound 3.16 µM, first compound 0.00316 µM): 2.33%
viability, T/C (second compound 3.16 µM, first compound 0.01 µM): 1.2%
viability, T/C [25]: 1.43%
viability, T/C [26]: 0.42%
viability, T/C [27]: 0.95%
viability, T/C [28]: 0.47%
viability, T/C (second compound 10 µM, first compound 0.00316 µM): 0.65%
viability, T/C (second compound 10 µM, first compound 0.01 µM): 0.74%
viability, T/C [31]: 0.78%
viability, T/C [32]: 0.76%
viability, T/C [33]: 1.19%
viability, T/C [34]: 0.45%

C=CC(=O)N1CCN(c2nc(=O)n(-c3c(C)ccnc3C(C)C)c3nc(-c4c(O)cccc4F)c(F)cc23)C(C)C1 (stereo unspecified) + CNC(=O)c1ccc(Nc2nc(OC3CCCC3)c3c(-c4ccc5nc(C)oc5c4)c[nH]c3n2)c(OC)c1
IC50 (second compound 0.0316 µM): > 10000 nM
IC50 (second compound 0.1 µM): > 10000 nM
IC50 (second compound 0.316 µM): 2160 nM
IC50 (second compound 1 µM): < 31.6 nM
IC50 (second compound 3.16 µM): < 31.6 nM
IC50 (second compound 10 µM): < 31.6 nM
viability, T/C [1]: 91.3%
viability, T/C [2]: 89.6%
viability, T/C [3]: 100%
viability, T/C [4]: 86.2%
viability, T/C [5]: 114%
viability, T/C [6]: 110%
viability, T/C [7]: 77.3%
viability, T/C [8]: 79.4%
viability, T/C [9]: 77.7%
viability, T/C [10]: 77.8%
viability, T/C [11]: 72%
viability, T/C [12]: 58.2%
viability, T/C [13]: 55.5%
viability, T/C [14]: 51.2%
viability, T/C [15]: 48%
viability, T/C [16]: 57%
viability, T/C [17]: 47.4%
viability, T/C [18]: 38.5%
viability, T/C [19]: 39.4%
viability, T/C [20]: 39.4%
viability, T/C [21]: 39.3%
viability, T/C [22]: 34.7%
viability, T/C [23]: 38.3%
viability, T/C [24]: 28%
viability, T/C [25]: 38.4%
viability, T/C [26]: 38.2%
viability, T/C [27]: 34.9%
viability, T/C [28]: 34.3%
viability, T/C [29]: 34.9%
viability, T/C [30]: 23.8%
viability, T/C [31]: 35.4%
viability, T/C [32]: 33.5%
viability, T/C [33]: 36.3%
viability, T/C [34]: 37.8%
viability, T/C [35]: 37.1%
viability, T/C [36]: 24.4%

— PubChem BioAssay AID2060625 (Molecular Pharmacology Branch, DTP, NCI, 2025)
